The values that follow come from paper PMC5702947, “A Study on Cytotoxic and Apoptotic Potential of a Triterpenoid Saponin (3-O-α-L-Arabinosyl Oleanolic Acid) Isolated from Schumacheria castaneifolia Vahl in Human Non-Small-Cell Lung Cancer (NCI-H292) Cells” (BioMed Research International, 2017).

For assay [1], the system named is MRC-5 cells. In words: Sulforhodamine B (SRB) cytotoxicity assay in MRC-5 cells. Format: cell-based. The following applies: Homo sapiens. The procedure: (§1) Sulphorhodamine B (SRB) assay was used to dertmine cytotoxic effects of the compound (3-O-L-AO) in NCI-H292 and MRC-5 cells. Cells (5 × 10^3/well) were seeded in 96-well tissue culture plates and incubated for 24 h. After 24 h incubation, cells were treated with 3-O-L-AO (0.78–25 μg/mL) and incubated for 24, 48, and 72 h. Paclitaxel (0.47–15 μg/mL) was used as the positive control. Cells were washed with PBS for three times and then fixed by adding 50% trichloroacetic acid (TCA) to each well followed by washing five times with tap water. After fixing, cells were stained with 0.4% SRB dye for 20 min followed by washing five times with 1% acetic acid. Tris-base (10 mM) was then added to each well and plates were kept on a plate shaker for 1 h at room temperature. The absorbance was measured using a microplate reader (Synergy HT, USA) at wavelength of 540 nm.
Background: The SRB assay estimates cell density from bound dye.

The test system of the next assay is glutathione (GSH). In words: Glutathione (GSH) levels in NCI-H292 cells. Format: cell-based, human. The settings on record: NCI-H292 cells, 0.5, 1 and 2 μg/mL (all three doses), 24 h, p < 0.0001. The procedure:
(§2) Evaluation of oxidative stress markers (reactive oxygen species (ROS), glutathione-S-transferase (GST), and glutathione (GSH)) after exposure to 3-O-L-AO in NCI-H292 cells was determined as previously described by us.
NCI-H292 cells were (1 × 10^5 cells/well) exposed to 3-O-L-AO (0.5, 1, and 2 μg/mL) for 24 h. After incubation, cells were collected by trypsinization. Collected cell pellets were mixed with ice-cold KCl (2 mL) and 0.5 M EDTA (1 mL) and sonicated for […]. Cell lysate was then centrifuged at 10,000 g for 15 min to obtain a clear supernatant and it was kept on ice throughout the experiments. Supernatent (75 μL) was mixed with 75 μL of 5% sulfosalicylic acid, 20 μL of 4% DTNB [5,5-dithiobis-(2-nitrobenzoic acid)], and 30 μL of 0.1 M potassium phosphate buffer (pH 8.0) and incubated for 30 min. Absorbance was then recorded at 412 nm and glutathione levels were calculated as nM/mg of cell lysate protein with the help of a GSH standard curve.

Assay [2] concerns glutathione-S-transferase (GST). Kind of assay: Glutathione-S-transferase (GST) activity in NCI-H292 cell lysates. Format: cell-based, human. The settings on record: NCI-H292 cells, 0.5, 1 and 2 μg/mL (all three doses), 24 h, p < 0.05 to p < 0.0001. The method, then:
as §2
An aliquot of cell lysates prepared for GSH assays was used to analyse GST activity. Glutathione and CDNB (1-chloro-2,4-dinitrobenzene) were served as substrates in this assay. A mixture was prepared by mixing 490 μL of PBS (pH 6.5), 5 μL of CDNB (100 mM), and 5 μL of GSH (100 mM); 180 μL of this mixture was mixed with 20 μL of cell lysate and incubated for 5 min at 37°C. Absorbance was recoreded at 340 nm for 5 min (1-minute time intervals). Quantity of GST catalyzing the oxidation of 1 millimole of 1-chloro-2,4-dinitrobenzene per minute at 37°C was considerd as one unit of GST activity.

In the next assay the test system is p53 gene. In words: Quantitative real-time PCR, p53 gene expression in NCI-H292 cells. The settings on record: 24 h. It counts as cell-based, human. The method, then: (§3) NCI-H292 cells (2 × 10^5 cells/mL) grown in T-25 tissue culture flasks were treated with 3-O-L-AO (1 and 2 μg/mL) and incubated for another 24 h. TRIzol reagent was used to extract RNA as described by Ediriweera et al., 2016 [13]. Extracted RNA (2 μg) was incubated with 50 ng of random primers and 13.5 μL of PCR water for 5 min at 70°C. cDNA synthesis was then carried out after mixing with a maxter mix containing 5 μL MMLV (Moloney Murine Leukemia Virus Reverse Transcriptase) reaction buffer, 5 μL 10 mM dNTP mix, 25 units of RNasin, and 200 units of MMLV RT enzyme, following incubation at 37°C for 60 min, in a total volume of 25 μL. Stratagene Mx3000P real-time PCR system (Agilent Technologies, CA, USA) was used to carry out real-time PCR. Primers used have been previously described. For real-time PCR, 2 μL of cDNA was mixed with Master Mix containing 0.5 μL of forward and reverses primers, 12.5 μL SYBR Green Master Mix (Eurogentec, Seraing, Liège, Belgium), and 9.5 μL PCR water. The thermal cycle programme set for real-time PCR include stage 1, 95°C for 10 min and stage two consisting of three steps: denaturation at 95°C for 30 s, annealing at 56°C for 1 min, and extension at 72°C for 30 s and stage 2 was repeated for 40 cycles. […] Gene expression was quantified using the method described by Livak and Schmittgen, 2001 [14].
Background: Quantitative PCR measures a nucleic acid by following its amplification.

Another assay concerns caspase 3/7. In words: Caspase-Glo 3/7 activity assay in NCI-H292 cells. It counts as cell-based, human. The settings on record: NCI-H292 cells, 0.5, 1 and 2 μg/mL (all three doses), 24 h. The method, then: Caspase 3/7 activity in NCI-H292 cells was measured using the Caspase-Glo 3/7 assay kit according to manufacturer's protocol. Prior to the assay, NCI-H292 cells were treated with three doses of 3-O-L-AO (0.5, 1, and 2 μg/mL) and incubated for 24 h.

The next assay has as its system Escherichia coli. Also noted: method as in earlier work. The settings on record: cited from earlier work.
Assay [3] concerns NCI-H292 cells. Kind of assay: Sulforhodamine B (SRB) cytotoxicity assay in NCI-H292 cells. It counts as cell-based. The following applies: Homo sapiens. The method, then:
as §1

The test system of assay [4] is reactive oxygen species (ROS). In words: Reactive oxygen species (ROS) level, NBT assay in NCI-H292 cells. Format: cell-based, human. The following applies: NCI-H292 cells, 0.5, 1 and 2 μg/mL (all three doses), 24 h, dose dependant. The procedure: as §2
NCI-H292 cells (20,000 cells/well) were plated in 96-well cell plates and incubated for 24 h. Following incubation, cells were treated with 3-O-L-AO (0.5, 1, and 2 μg/mL) and incubated for 24 h. Nitro Blue Tetrazolium (NBT) solution (1 mg/mL, 20 μL) was then added to each well and incubated for 1 h at 37°C. Blue formazan formed was then solubalized after adding 100 μL of dimethyl sulfoxide (DMSO) and the absorbance was read at 620 nm.

Another assay concerns Staphylococcus aureus. Also noted: method as in earlier work. The settings on record: cited from earlier work.
The subject of the next assay is survivin gene. Kind of assay: Quantitative real-time PCR, survivin gene expression in NCI-H292 cells. Format: cell-based, human. The settings on record: 1 and 2 μg/mL (both doses), 24 h, downregulation not significant. The procedure:
as §3

The test system of assay [5] is NCI-H292 cells. Kind of assay: AO/EB staining, apoptosis related morphology under fluorescence microscopy. Format: cell-based, human. The following applies: NCI-H292 cells, 2.5, 5 and 10 μg/mL, 24 h. The method, then:
NCI-H292 lung cancer cells (2 × 10^4 cells/well) cultured on coverslips were treated with 3-O-L-AO (2.5, 5, and 10 μg/mL) for 24 h. After incubation, cells were washed with phosphate buffer saline (PBS) and fixed with 4% formaldehyde for 15 min. Fixed cells were again washed with PBS and stained with acridine orange/ethidium bromide as previously described by us. Stained cells were observed under a fluorescence microscope (Olympus, BX51TRF, Japan).

Another assay deals with Bax gene. Kind of assay: Quantitative real-time PCR, Bax gene expression in NCI-H292 cells. Format: cell-based, human. The following applies: 1 and 2 μg/mL (both doses), 24 h. The procedure:
as §3

Assay [6] concerns MRC-5 cells. Kind of assay: Cytomorphological changes under phase-contrast microscope, MRC-5 cells. Format: cell-based, human. The following applies: MRC-5 cells, 1.5, 6.25 and 12.5 μg/mL, 24, 48, 72 h, phase-contrast images. From the text: (§4) Morphological changes of lung cancer cells (NCI-H292) and normal fibroblasts (MRC-5) cells after exposure to 3-O-L-AO were captured using inverted phase-contrast microscope (Olympus CKX41, Japan).

The test system of assay [7] is NCI-H292 cells. Kind of assay: Cytomorphological changes under phase-contrast microscope, NCI-H292 cells. It counts as cell-based, human. The settings on record: NCI-H292 cells, 1.5, 6.25 and 12.5 μg/mL, 24, 48, 72 h, phase-contrast images.
Text: as §4

As for `CC1(C)CCC2(C(=O)O)CCC3(C)C(=CCC4C5(C)CCC(OC6OCC(O)C(O)C6O)C(C)(C)C5CCC43C)C2C1` [3-O-L-AO, 3-O-α-L-arabinosyl oleanolic acid], the IC50 (as a rule, the concentration needed to halve the response being measured) in the assay on MRC-5 cells [1] (MRC5, 24 h incubation) was 5.4 µg/mL; in the assay with MRC-5 cells [1] (MRC5, 48 h incubation) it was 4.59 µg/mL; in the assay on MRC-5 cells [1] (MRC5, 72 h incubation) it was 2.83 µg/mL; in the assay with NCI-H292 cells [3] (24 h incubation), 4.33 µg/mL; in the assay on NCI-H292 cells [3] (48 h incubation), 2.69 µg/mL; with NCI-H292 cells [3] (72 h incubation), 1.5 µg/mL. Also, the GSH levels result in the assay with glutathione (GSH) is on record as “Significant reduction”. Further, the “GST levels (activity)” value in assay [2] is reported as “increase”. Moreover, the p53 gene expression entry with p53 gene (1 μg/mL) is on record as “upregulation”; in the assay with p53 gene (2 μg/mL), “significant (p < 0.05) upregulation”. Also, in the assay with caspase 3/7, the “Caspase 3/7 activity compared to untreated control” value is reported as “Significant (p < 0.0001) increase”. In addition, the “Antibacterial effects against Escherichia coli” value in the assay with Escherichia coli was “Moderate antibacterial effects”. Also, in [4], the “Reactive oxygen species (ROS) level” value is reported as “significantly (p < 0.05 to p < 0.0001) increased”. Also, the “Antibacterial effects against Staphylococcus aureus” value with Staphylococcus aureus is reported as “Moderate antibacterial effects”. For the same molecule, in the assay on survivin gene, the survivin gene expression result is “downregulation”. In the assay with NCI-H292 cells [5], the “Apoptotic induction (AO/EB staining)” value was “dose dependent apoptotic induction”. The Bax gene expression result with Bax gene was “Significant (p < 0.001 and p < 0.0001) upregulation”. Besides, the “Cytomorphological changes of normal lung fibroblast cells” value in the assay with MRC-5 cells [6] was “decreased cell volume and rounding up cells”. In the assay with NCI-H292 cells [7], the “Cytomorphological changes of lung cancer cells” value was “decreased cell volume and rounding up cells”.

For the molecule `CC(=O)O[C@H]1C(=O)[C@@]2(C)[C@H]([C@H](OC(=O)c3ccccc3)[C@]3(O)C[C@H](OC(=O)[C@H](O)[C@@H](NC(=O)c4ccccc4)c4ccccc4)C(C)=C1C3(C)C)[C@]1(OC(C)=O)CO[C@@H]1C[C@@H]2O` [Paclitaxel, reference compound], the IC50 was determined as 1.51 µg/mL with MRC-5 cells [1] (MRC5, 24 h incubation); 0.96 µg/mL in the assay on MRC-5 cells [1] (MRC5, 48 h incubation); 0.35 µg/mL in the assay on MRC-5 cells [1] (MRC5, 72 h incubation); 8.37 µg/mL in the assay on NCI-H292 cells [3] (24 h incubation); 3.28 µg/mL in the assay on NCI-H292 cells [3] (48 h incubation); 1.59 µg/mL in the assay on NCI-H292 cells [3] (72 h incubation).
